How the values were obtained:
[1] = target: Serine/threonine-protein kinase MARK1 (Homo sapiens) (UniProt Q9P0L2); assay: Inhibition of MARK1 (unknown origin) at 100 nM
[2] = target: Dual specificity mitogen-activated protein kinase kinase 6 (Homo sapiens) (UniProt P52564); assay: Inhibition of MKK6 (unknown origin) at 100 nM
[3] = species on record: Homo sapiens; assay: Inhibition of MKK6 S207E/T211E double mutant (unknown origin) at 100 nM
[4] = target: Mitogen-activated protein kinase kinase kinase 9 (Homo sapiens) (UniProt P80192); assay: Inhibition of MLK1 (unknown origin) at 100 nM
[5] = target: Mitogen-activated protein kinase kinase kinase 10 (Homo sapiens) (UniProt Q02779); assay: Inhibition of MLK2 (unknown origin) at 100 nM
[6] = target: Myosin light chain kinase (Homo sapiens) (UniProt Q32MK0); assay: Inhibition of MYLK3 (unknown origin) at 100 nM
[7] = target: Serine/threonine-protein kinase Nek4 (Homo sapiens) (UniProt P51957); assay: Inhibition of NEK4 (unknown origin) at 100 nM
[8] = target: Serine/threonine-protein kinase NLK (Homo sapiens) (UniProt Q9UBE8); assay: Inhibition of NLK (unknown origin) at 100 nM
[9] = target: Serine/threonine-protein kinase PAK 6 (Homo sapiens) (UniProt Q9NQU5); assay: Inhibition of PAK6 (unknown origin) at 100 nM
[10] = test system: Platelet-derived growth factor receptor alpha (Homo sapiens), P16234 [V561D]; assay: Inhibition of PDGFRalpha V561D mutant (unknown origin) at 100 nM
Chain of Platelet-derived growth factor receptor alpha (Homo sapiens), P16234 [V561D] (P16234 whole entry V561D): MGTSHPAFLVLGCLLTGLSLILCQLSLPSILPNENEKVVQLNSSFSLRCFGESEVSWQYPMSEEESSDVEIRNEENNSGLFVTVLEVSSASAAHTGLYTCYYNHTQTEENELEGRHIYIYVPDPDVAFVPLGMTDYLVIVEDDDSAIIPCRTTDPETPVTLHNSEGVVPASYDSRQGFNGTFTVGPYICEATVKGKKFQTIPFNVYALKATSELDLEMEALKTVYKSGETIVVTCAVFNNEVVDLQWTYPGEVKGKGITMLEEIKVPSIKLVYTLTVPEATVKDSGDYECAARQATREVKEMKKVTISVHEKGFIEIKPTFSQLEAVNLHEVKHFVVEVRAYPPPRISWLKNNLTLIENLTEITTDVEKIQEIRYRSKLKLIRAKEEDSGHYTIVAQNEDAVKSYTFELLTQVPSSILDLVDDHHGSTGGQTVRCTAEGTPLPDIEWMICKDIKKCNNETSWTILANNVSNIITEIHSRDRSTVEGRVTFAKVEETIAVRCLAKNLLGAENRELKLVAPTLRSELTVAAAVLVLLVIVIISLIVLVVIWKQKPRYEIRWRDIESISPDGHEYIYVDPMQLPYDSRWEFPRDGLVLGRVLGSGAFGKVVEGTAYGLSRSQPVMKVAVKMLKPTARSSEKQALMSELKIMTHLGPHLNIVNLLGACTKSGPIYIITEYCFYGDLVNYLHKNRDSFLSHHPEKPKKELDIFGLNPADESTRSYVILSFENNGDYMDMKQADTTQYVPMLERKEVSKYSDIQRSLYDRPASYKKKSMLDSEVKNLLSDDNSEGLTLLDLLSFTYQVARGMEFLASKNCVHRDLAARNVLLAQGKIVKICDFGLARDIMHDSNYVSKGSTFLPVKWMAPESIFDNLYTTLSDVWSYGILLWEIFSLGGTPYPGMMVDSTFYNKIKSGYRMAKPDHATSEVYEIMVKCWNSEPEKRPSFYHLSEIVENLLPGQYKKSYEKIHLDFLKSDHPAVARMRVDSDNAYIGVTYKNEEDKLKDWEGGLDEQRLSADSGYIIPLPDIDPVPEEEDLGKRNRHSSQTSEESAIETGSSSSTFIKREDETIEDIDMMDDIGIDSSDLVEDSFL

[11] = target: 3-phosphoinositide-dependent protein kinase 1 (Homo sapiens) (UniProt O15530); assay: Inhibition of PDK1 (unknown origin) by direct binding assay at 100 nM
[12] = target: Phosphatidylinositol 4,5-bisphosphate 3-kinase catalytic subunit delta isoform (Homo sapiens) (UniProt O00329); assay: Inhibition of PI3KD (unknown origin) at 100 nM
[13] = target: Serine/threonine-protein kinase pim-2 (Homo sapiens) (UniProt Q9P1W9); assay: Inhibition of PIM2 (unknown origin) at 100 nM
[14] = target: Protein kinase C alpha type (Homo sapiens) (UniProt P17252); assay: Inhibition of PKCalpha (unknown origin) at 100 nM
[15] = target: Serine/threonine-protein kinase D3 (Homo sapiens) (UniProt O94806); assay: Inhibition of PKD3 (unknown origin) at 100 nM
Chain of Serine/threonine-protein kinase D3 (Homo sapiens) (O94806 whole entry): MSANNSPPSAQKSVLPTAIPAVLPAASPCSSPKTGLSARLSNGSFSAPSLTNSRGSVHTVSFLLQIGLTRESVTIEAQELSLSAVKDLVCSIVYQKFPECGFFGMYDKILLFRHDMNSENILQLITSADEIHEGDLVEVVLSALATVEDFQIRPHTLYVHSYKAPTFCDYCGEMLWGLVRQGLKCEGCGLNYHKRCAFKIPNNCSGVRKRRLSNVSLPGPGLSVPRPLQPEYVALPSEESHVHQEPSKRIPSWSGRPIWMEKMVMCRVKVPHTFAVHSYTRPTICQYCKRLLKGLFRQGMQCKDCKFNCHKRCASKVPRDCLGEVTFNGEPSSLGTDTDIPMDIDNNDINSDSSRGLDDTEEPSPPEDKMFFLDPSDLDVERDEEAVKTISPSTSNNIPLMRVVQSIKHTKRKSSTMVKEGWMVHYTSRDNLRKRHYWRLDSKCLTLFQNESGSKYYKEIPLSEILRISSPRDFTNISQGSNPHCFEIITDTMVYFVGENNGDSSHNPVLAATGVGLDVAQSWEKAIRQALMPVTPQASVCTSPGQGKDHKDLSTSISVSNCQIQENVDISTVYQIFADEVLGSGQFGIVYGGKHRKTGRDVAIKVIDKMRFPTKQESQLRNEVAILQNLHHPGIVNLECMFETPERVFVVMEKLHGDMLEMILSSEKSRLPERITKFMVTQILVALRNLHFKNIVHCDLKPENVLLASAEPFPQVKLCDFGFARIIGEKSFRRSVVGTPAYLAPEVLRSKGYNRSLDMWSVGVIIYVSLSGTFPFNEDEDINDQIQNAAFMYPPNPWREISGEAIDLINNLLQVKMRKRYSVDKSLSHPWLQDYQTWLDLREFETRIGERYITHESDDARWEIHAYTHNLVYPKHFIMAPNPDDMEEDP

[16] = target: MAP kinase-activated protein kinase 5 (Homo sapiens) (UniProt Q8IW41); assay: Inhibition of PRAK (unknown origin) at 100 nM
[17] = target: Phosphorylase b kinase gamma catalytic chain, skeletal muscle/heart isoform (Homo sapiens) (UniProt Q16816); assay: Inhibition of PHKgamma1 (unknown origin) at 100 nM
[18] = target: Ribosomal protein S6 kinase alpha-2 (Homo sapiens) (UniProt Q15349); assay: Inhibition of RSK3 (unknown origin) at 100 nM
[19] = target: Proto-oncogene tyrosine-protein kinase ROS (Homo sapiens) (UniProt P08922); assay: Inhibition of ROS (unknown origin) at 100 nM
[20] = target: Tyrosine-protein kinase receptor TYRO3 (Homo sapiens) (UniProt Q06418); assay: Inhibition of RSE (unknown origin) at 100 nM
[21] = target: Activated CDC42 kinase 1 (Homo sapiens) (UniProt Q07912); assay: Inhibition of TNK2 (unknown origin) at 100 nM
Chain of Activated CDC42 kinase 1 (Homo sapiens) (Q07912 whole entry, looked up): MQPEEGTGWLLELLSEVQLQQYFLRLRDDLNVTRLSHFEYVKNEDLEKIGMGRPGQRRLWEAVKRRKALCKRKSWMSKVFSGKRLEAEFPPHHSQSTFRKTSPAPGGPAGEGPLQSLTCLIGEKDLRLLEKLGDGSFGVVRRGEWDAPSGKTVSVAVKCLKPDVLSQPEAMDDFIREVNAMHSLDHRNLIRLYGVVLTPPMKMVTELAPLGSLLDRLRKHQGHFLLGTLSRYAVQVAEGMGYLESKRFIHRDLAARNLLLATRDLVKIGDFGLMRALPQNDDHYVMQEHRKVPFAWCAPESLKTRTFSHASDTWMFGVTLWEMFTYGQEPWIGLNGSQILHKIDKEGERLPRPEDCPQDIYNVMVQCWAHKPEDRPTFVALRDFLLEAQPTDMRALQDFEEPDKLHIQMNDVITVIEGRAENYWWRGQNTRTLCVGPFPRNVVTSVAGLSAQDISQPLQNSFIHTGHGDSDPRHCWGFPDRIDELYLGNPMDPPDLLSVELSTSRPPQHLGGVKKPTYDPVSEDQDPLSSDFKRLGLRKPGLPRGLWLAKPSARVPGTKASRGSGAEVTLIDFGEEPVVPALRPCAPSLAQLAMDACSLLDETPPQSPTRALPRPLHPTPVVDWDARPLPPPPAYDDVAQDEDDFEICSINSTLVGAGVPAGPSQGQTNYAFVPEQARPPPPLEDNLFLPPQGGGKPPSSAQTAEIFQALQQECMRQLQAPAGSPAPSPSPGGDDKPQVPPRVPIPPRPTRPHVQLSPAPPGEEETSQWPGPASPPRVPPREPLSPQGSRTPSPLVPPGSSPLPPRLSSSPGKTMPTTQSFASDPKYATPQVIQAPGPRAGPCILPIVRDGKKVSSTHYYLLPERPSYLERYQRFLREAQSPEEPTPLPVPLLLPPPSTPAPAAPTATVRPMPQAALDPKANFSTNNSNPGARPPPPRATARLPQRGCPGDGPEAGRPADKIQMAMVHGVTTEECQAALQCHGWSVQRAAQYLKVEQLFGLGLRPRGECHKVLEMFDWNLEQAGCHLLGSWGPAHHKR

[22] = target: Dual specificity protein kinase TTK (Homo sapiens) (UniProt P33981); assay: Inhibition of TTK (unknown origin) at 100 nM
[23] = target: NT-3 growth factor receptor (Homo sapiens) (UniProt Q16288); assay: Inhibition of TRKC (unknown origin) at 100 nM
[24] = target: Serine/threonine-protein kinase 25 (Homo sapiens) (UniProt O00506); assay: Inhibition of YSK1 (unknown origin) at 100 nM
[25] = test system: Rattus norvegicus; assay: Unbound AUC in rat at 5 mg/kg, po; assay type: ADME, organism-based; details: in vivo
[26] = target: Activin receptor type-1B (Homo sapiens) (UniProt P36896); assay: Inhibition of ACVR1B (unknown origin) at 100 nM
Chain of Activin receptor type-1B (Homo sapiens) (P36896 whole entry): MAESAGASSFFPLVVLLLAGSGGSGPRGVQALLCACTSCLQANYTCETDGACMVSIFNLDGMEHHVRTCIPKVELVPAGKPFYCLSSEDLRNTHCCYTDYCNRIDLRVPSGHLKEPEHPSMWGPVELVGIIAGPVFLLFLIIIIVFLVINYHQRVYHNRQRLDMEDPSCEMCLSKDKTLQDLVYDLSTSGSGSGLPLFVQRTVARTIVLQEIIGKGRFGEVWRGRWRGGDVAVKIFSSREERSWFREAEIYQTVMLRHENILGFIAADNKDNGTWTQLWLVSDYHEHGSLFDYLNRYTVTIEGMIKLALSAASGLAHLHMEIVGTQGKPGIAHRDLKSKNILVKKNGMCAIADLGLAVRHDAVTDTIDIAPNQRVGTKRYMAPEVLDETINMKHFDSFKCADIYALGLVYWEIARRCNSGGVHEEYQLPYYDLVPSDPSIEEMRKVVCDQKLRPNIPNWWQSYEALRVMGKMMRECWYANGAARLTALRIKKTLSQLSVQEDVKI

[27] = target: Activin receptor type-1 (Homo sapiens) (UniProt Q04771); assay: Inhibition of ALK2 (unknown origin) at 100 nM
[28] = target: NUAK family SNF1-like kinase 1 (Homo sapiens) (UniProt O60285); assay: Inhibition of ARK5 (unknown origin) at 100 nM
[29] = target: Mitogen-activated protein kinase kinase kinase 5 (Homo sapiens) (UniProt Q99683); assay: Inhibition of ASK1 (unknown origin) at 100 nM
[30] = target: Serine/threonine-protein kinase B-raf (Homo sapiens) (UniProt P15056); assay: Inhibition of B-Raf (unknown origin) at 100 nM
[31] = target: Bone morphogenetic protein receptor type-1A (Homo sapiens) (UniProt P36894); assay: Inhibition of BMPR1A (unknown origin) at 100 nM
[32] = target: Cyclin-dependent kinase 1/cyclin B1 (Homo sapiens) (UniProt P06493+P14635); assay: Inhibition of CDK1/cyclinB (unknown origin) at 100 nM; assay type: protein-complex assay
[33] = target: CDK9/cyclin T1 (Homo sapiens) (UniProt O60563+P50750); assay: Inhibition of CDK9/cyclinT1 (unknown origin) at 100 nM; assay type: protein-complex assay
[34] = target: Casein kinase I isoform gamma-1 (Homo sapiens) (UniProt Q9HCP0); assay: Inhibition of CK1gamma1 (unknown origin) at 100 nM
[35] = target: Dual specificity protein kinase CLK1 (Homo sapiens) (UniProt P49759); assay: Inhibition of CLK1 (unknown origin) at 100 nM
[36] = target: Dual specificity protein kinase CLK4 (Homo sapiens) (UniProt Q9HAZ1); assay: Inhibition of CLK4 (unknown origin) at 100 nM
[37] = target: Calcium/calmodulin-dependent protein kinase type II subunit alpha (Homo sapiens) (UniProt Q9UQM7); assay: Inhibition of CamKIIalpha (unknown origin) at 100 nM
[38] = target: Serine/threonine-protein kinase DCLK2 (Homo sapiens) (UniProt Q8N568); assay: Inhibition of DCAMKL2 (unknown origin) at 100 nM
Chain of Serine/threonine-protein kinase DCLK2 (Homo sapiens) (Q8N568 whole entry): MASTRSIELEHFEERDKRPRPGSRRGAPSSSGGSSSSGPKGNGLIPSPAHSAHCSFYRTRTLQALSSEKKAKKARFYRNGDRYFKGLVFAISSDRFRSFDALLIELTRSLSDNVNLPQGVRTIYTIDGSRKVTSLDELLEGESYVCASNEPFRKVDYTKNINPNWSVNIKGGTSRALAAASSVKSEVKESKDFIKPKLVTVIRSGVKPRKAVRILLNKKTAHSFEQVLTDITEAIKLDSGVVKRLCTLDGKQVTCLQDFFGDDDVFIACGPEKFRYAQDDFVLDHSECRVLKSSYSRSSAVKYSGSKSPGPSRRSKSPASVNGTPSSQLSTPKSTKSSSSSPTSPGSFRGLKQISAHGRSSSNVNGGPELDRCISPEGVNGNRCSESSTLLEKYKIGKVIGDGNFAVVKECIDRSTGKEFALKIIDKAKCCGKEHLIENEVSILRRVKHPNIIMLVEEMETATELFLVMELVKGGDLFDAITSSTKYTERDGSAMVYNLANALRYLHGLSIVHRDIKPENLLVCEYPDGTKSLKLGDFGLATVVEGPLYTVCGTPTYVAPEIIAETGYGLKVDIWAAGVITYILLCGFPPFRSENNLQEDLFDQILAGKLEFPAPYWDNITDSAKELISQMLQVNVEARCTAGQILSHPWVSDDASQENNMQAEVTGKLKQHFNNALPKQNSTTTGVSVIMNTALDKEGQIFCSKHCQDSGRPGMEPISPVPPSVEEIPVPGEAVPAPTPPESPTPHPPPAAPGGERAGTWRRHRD

[39] = target: Ephrin type-A receptor 1 (Homo sapiens) (UniProt P21709); assay: Inhibition of EPHA1 (unknown origin) at 100 nM
[40] = target: Focal adhesion kinase 1 (Homo sapiens) (UniProt Q05397); assay: Inhibition of FAK (unknown origin) at 100 nM
[41] = target: Tyrosine-protein kinase FRK (Homo sapiens) (UniProt P42685); assay: Inhibition of FRK (unknown origin) at 100 nM
Chain of Tyrosine-protein kinase FRK (Homo sapiens) (P42685 whole entry): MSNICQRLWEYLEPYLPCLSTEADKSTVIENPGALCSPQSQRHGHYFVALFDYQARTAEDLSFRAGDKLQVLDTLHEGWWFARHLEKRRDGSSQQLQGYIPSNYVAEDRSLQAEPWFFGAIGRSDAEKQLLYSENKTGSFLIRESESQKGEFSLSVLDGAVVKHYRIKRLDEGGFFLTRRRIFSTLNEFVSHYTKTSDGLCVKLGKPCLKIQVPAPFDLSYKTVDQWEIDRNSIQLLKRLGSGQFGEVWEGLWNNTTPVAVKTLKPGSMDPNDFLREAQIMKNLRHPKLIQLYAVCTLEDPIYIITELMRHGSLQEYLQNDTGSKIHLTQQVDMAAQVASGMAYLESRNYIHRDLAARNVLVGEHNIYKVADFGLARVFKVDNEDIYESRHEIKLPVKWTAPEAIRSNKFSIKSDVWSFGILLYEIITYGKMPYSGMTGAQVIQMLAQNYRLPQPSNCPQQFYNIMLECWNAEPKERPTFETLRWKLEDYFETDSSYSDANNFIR

[42] = target: G protein-coupled receptor kinase 5 (Homo sapiens) (UniProt P34947); assay: Inhibition of GRK5 (unknown origin) at 100 nM
[43] = test system: Mast/stem cell growth factor receptor Kit (Homo sapiens), P10721 [T670I]; assay: Inhibition of KIT T670I mutant (unknown origin) at 100 nM

Work on `CC1(C)OCc2c(Nc3n[nH]c4ccccc34)nc(-c3cn[nH]c3)nc21` yielded an inhibition [1] of -1.8%, an inhibition [2] of -0.9% and an inhibition [3] of 10.2%. For the same compound, the inhibition [4] was 2.9%, the inhibition [5] was 2.3% and the inhibition [6] was 20.6%. For the same compound, the inhibition [7] was 2%, the inhibition [8] was -0.6% and the inhibition [9] was -0.3%. For the same compound, the inhibition [10] was 89.2%, the inhibition [11] was -1.4% and the inhibition [12] was -7.6%. For the same compound, the inhibition [13] was 3.1%, the inhibition [14] was 7% and the inhibition [15] was 19%. It also gave an inhibition [16] of 5.7%, an inhibition [17] of 8.5% and an inhibition [18] of 7.4%. It also gave an inhibition [19] of 11.4%, an inhibition [20] of 5.8% and an inhibition [21] of 7.8%. The inhibition [22] was 4.3%, the inhibition [23] was 14.5% and the inhibition [24] was 5.1%. For the same compound, the fAUC [25] was 0.05 µM·h, the inhibition [26] was 70.7% and the inhibition [27] was 30.3%. The inhibition [28] was 11.6%, the inhibition [29] was 4.2% and the inhibition [30] was 59.3%. It also gave an inhibition [31] of 16.8%, an inhibition [32] of -3.1% and an inhibition [33] of -6.1%. For the same compound, the inhibition [34] was 1.3%, the inhibition [35] was 7.3% and the inhibition [36] was 13.3%. For the same compound, the inhibition [37] was -0.1%, the inhibition [38] was 1.8% and the inhibition [39] was 16.1%. The inhibition [40] was 7.2%, the inhibition [41] was 85.6% and the inhibition [42] was -1.4%. It also gave an inhibition [43] of 17.9%.

— ChEMBL document CHEMBL3758169, “4-Aminoindazolyl-dihydrofuro[3,4-d]pyrimidines as non-covalent inhibitors of mutant epidermal growth factor receptor tyrosine kinase” (Bioorg Med Chem Lett, 2016)
